Experiment [1] relates to mouse (Harlan ND4). The experiment is described as follows: mouse hot plate test (mouse jump). The class given is in vivo. The settings on record: subcutaneous injection, 15 minutes after administration, hot plate 55° C., dose producing analgesia in 50% of mice. As to the method: In this test, an upright acrylic cylinder comprising, as its base, a hot plate surface which is maintained at 55° C. is used. A mouse (Harlan ND4) is given, by subcutaneous injection, a predetermined amount of test compound dissolved or suspended in a suitable carrier, and, 15 minutes after administration of the test compound, the mouse is placed on the hot plate surface. The latency in seconds until the mouse jumps from the hot plate surface is measured. […] This must occur in a dose range which produces no motor incoordination or incapacitation. The following Table records ED50 results obtained from this test. By the term "ED50 " is meant that dose which produces analgesia in 50% of the mice tested. Analgesia is defined as a response latency in the presence of test compound that is equal to or greater than the control response latency plus two standard deviations. The percent analgesia data are converted to probits, and the ED50 is calculated by regression analysis of the dose-response data. Each dose response curve must have at least four points, and each point is determined using data from a minimum of ten treated mice and ten control mice.
(In general: Hot-plate and tail-flick tests time the reaction to a heat stimulus.)

The target of experiment [2] is T1, enkephalin (δ) receptor (Mus musculus, UniProt P32300).
T1 construct: from tissue; host or cells: mouse vas deferens (Harlan ND4 mice)
The experiment is described as follows: mouse vas deferens assay. The class given is cell-based. The settings on record: depression of 50% of the electrically evoked contraction, field stimulation 0.15 Hz, 37° C. The method, then: In the mouse vas deferens test, single mouse vas deferens from mature mice (Harlan ND4, 30-40 g.) are suspended in 3 ml. of modified Kreb's solution aerated with 95% O2 -5% CO2 and maintained at 37° C. The twitch induced by field stimulation (0.15 Hz, 1 msec., 40V) is recorded on a polygraph via an isometric transducer. The test compound is added to the bath in 20 to 30 μl. aliquots. A dose-response curve is constructed by cumulative addition of appropriate amounts of the compound to the bath. Comparison of relative agonist potency at the δ receptor is made on the basis of IC50 values (concentration causing depression of 50% of the electrically evoked contraction).
The Table following also provides results for compounds of this invention when tested in the mouse vas deferens assay.

Experiment [3] concerns mice. The settings on record: cited from earlier work.

T1 sequence (P32300 whole entry): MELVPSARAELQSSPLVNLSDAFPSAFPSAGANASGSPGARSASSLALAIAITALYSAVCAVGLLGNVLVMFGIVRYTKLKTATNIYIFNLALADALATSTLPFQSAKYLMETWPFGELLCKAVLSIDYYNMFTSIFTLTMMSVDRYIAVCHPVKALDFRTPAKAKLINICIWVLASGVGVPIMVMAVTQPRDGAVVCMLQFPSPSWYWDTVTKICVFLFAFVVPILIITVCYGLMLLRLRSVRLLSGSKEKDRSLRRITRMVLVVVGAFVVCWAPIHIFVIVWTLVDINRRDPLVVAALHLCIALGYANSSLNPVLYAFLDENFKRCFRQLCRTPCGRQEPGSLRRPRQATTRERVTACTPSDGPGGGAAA

For the compound `CC(=O)C(Cc1ccccc1)NC(=O)CNC(=O)[C@@H](C)NC(=O)[C@@H](N)Cc1ccc(O)cc1` (stereo partly drawn) [Example 1, L-Tyrosyl-D-alanyl-N-(2-oxo-1-benzylpropyl)glycinamide], the “Mouse Jump ED50” value in experiment [1] stood at 3.2 mg/kg. It took 0.49 nM to reach half-maximal inhibition in experiment [2] (IC50).

Take `CCN(C(=O)CNC(=O)[C@@H](C)NC(=O)[C@@H](N)Cc1ccc(O)cc1)[C@@H](Cc1ccccc1)C(C)=O` [Example 2, L-Tyrosyl-D-alanyl-N-ethyl-N-(2-oxo-1-benzylpropyl)glycinamide]: in experiment [1], the “Mouse Jump ED50” value came out at 0.006 mg/kg. Further, the half-inhibitory concentration (IC50) in experiment [2] was determined as 0.71 nM.

Take “H-Tyr-Gly-Gly-Phe-Met-OH [methionine enkephalin]”: in experiment [3], the “analgesic activity when administered parenterally” value was “practically devoid of any useful analgesic activity”.

Broadly, the IC50 is the concentration at which inhibition is half-maximal. The low end stands for higher potency, the high end for lower potency.

Values taken from patent publication US4448717A, “Pharmacologically active peptides” (Eli Lilly and Company, priority 1982, dated 1984).
